Assay results from US12104173B2, “Method for differentiation of human pluripotent stem cell lines in suspension culture” (AGENCY FOR SCIENCE, TECHNOLOGY AND RESEARCH, priority 2018, dated 2024).

What was measured:
Assay in all cases: CHIR dose: hematopoietic/erythroid differentiation of agitated hPSC-MC aggregates
Type in all cases: cell-based, human
BR2 O-neg hiPSC line = system: BR2 O-neg hiPSC line
Experimental: (§1) Human pluripotent stem cell-microcarrier (HPSC-MC) aggregates generated from different hPSC lines were differentiated using 3 different CHIR doses (5, 10 and 15 μM for 24 hours) and were evaluated for T-bra (day 2) and KDR+PDGFRβ− (day 4) expression by flow cytometry, induction of key hematopoietic transcription factors by RT-PCR (day 4), hematopoietic precursor expansion (day 14) and erythroblast expansion (day 42).
(§2) Table 2—Hematopoietic differentiation of nine human pluripotent stem cell (hPSC) lines, from expansion in agitated microcarrier culture to erythroblast expansion—This table summarises the different stages of differentiation; hPSC expansion, mesoderm induction, hematopoietic precursor and erythroblast expansion of multiple hPSC-MC aggregate lines differentiated with optimal dose of CHIR-99021. Fold-expansion of hPSC-MC aggregates following 7 days of agitated culture, hematopoietic precursors following 14 days of culture in methylcellulose medium and erythroblast expansion following 24 days in expansion medium are reported. Flow cytometric evaluation of % T-bra+ cells on day 2 and % KDR+ cells on day 4 during mesoderm induction, % CD43+ cells during hematopoietic precursor expansion, % CD235a+ cells and fetal hemoglobin expression during erythroblast expansion stage are summarised. Total erythroid cells per hPSC seeded on day 42 was calculated as number of embryoid bodies derived on day 4 per hPSC seeded*erythroblast fold expansion*percent CD235a+ erythroblast.
(§3) Analysis of Design of experiments (DoE) outcomes and evaluation of selected conditions generated by the MODDE® software allowed the development of an optimized protocol for hematopoietic mesoderm induction of human pluripotent stem cell-microcarrier (hPSC-MC) aggregates initially expanded under continuous agitation. Approximately 2 to 4 million hPSC-MC aggregates in 3 ml of Stemline® II medium were differentiated as follows: day 1; 30 ng/ml of BMP4, 50 ng/ml VEGF165, 12 μM CHIR-99021 (Selleck Chemicals, USA), 50 ng/ml Activin A, day 2; 30 ng/ml of BMP4, 50 ng/ml VEGF165, 50 ng/ml Activin A, day 3: 30 ng/ml of BMP4, 50 ng/ml VEGF165 and 20 ng/ml bFGF. Four days post-differentiation, single cells derived by TrypLE™ Express (ThermoFisher Scientific) treatment and strained through 40 μm cell strainers (Greiner Bio-one, Germany) were used for hematopoietic precursor and erythroblast expansion and erythroblast terminal maturation as detailed herein. Hematopoietic and erythroblast differentiation were monitored by flow cytometry, quantitative real-time PCR, immunoblotting and microscopic imaging. Oxygen binding affinity of differentiated erythroblast was determined using a Hemox Analyzer (TCS Scientific Corp, USA).
(§4) HPSC-MC aggregates were dissociated into single cells by treatment with TrypLE. Express (ThermoFisher Scientific) for 5 minutes at 37° C., passed through 40 μm cell strainer (Greiner Bio-one), centrifuged at 1300 rpm for 3 minutes to pellet cells, and rinsed once with phosphate buffered saline (PBS) before re-suspension in Stemline II medium. Two hundred thousand cells in 100 μl of Stemline II medium were transferred to a 6-well ultra-low attachment plate and cultured with Blast growth medium (BGM) for 2 weeks in static conditions as detailed herein.
(§5) Hematopoietic precursors were mixed with equal volume of Stemline II medium containing 50 ng/ml of SCF (STEMCELL. Technologies) and 3 U/ml EPO (Peprotech, USA), for an additional 7 days. Subsequently, cells were diluted 10-fold with PBS and pelleted by centrifugation at 3000 rpm for 10 minutes. […]

IMR90 hiPSC line = conditions: for Erythroblast expansion Fold-expansion: optimal dose of CHIR-99021, 24 days in erythroblast expansion medium (static), cumulative
Experimental: as §1, §2, §3, §4, §5

X13 O-neg hiPSC line = conditions: for Erythroblast expansion Fold-expansion: optimal dose of CHIR-99021, 24 days in erythroblast expansion medium (static), cumulative; for Total erythroid cells per hPSC seeded (day 42): optimal dose of CHIR-99021, CD235a+ erythroid cells
Experimental: as §1, §2, §3, §4, §5

D5 O-neg hiPSC line = conditions: for Erythroblast expansion Fold-expansion: optimal dose of CHIR-99021, 24 days in erythroblast expansion medium (static), cumulative
Experimental: as §1, §2, §3, §4, §5

hES-3 hESC line = conditions: for Erythroblast expansion Fold-expansion: optimal dose of CHIR-99021, 24 days in erythroblast expansion medium (static), cumulative
Experimental: as §1, §2, §3, §4, §5

BR7 O-neg hiPSC line = conditions: for Erythroblast expansion Fold-expansion: optimal dose of CHIR-99021, 24 days in erythroblast expansion medium (static), cumulative
Experimental: as §1, §2, §3, §4, §5

D9 O-neg hiPSC line = conditions: for Erythroblast expansion Fold-expansion: optimal dose of CHIR-99021, 24 days in erythroblast expansion medium (static), cumulative
Experimental: as §1, §2, §3, §4, §5

[1] = 15 μM CHIR dose, day 14 post differentiation
[2] = 15 μM CHIR for 24 hours, day 2, flow cytometry
[3] = 15 μM CHIR for 24 hours, day 4, flow cytometry
[4] = optimal dose of CHIR-99021, 14 days in methyl cellulose medium
[5] = optimal dose of CHIR-99021, 14 days in methyl cellulose medium (static)
[6] = optimal dose of CHIR-99021, day 2
[7] = optimal dose of CHIR-99021, erythroblast expansion stage
[8] = optimal dose of CHIR-99021, fetal hemoglobin, flow cytometry

Cc1c[nH]c(-c2cnc(NCCNc3ccc(C#N)cn3)nc2-c2ccc(Cl)cc2Cl)n1 [CHIR-99021, 6-[[2-[[4-(2,4-Dichlorophenyl)-5-(5-methyl-1H-imidazol-2-yl)-2-pyrimidinyl]amino]ethyl]amino]-3-pyridinecarbonitrile]
fold-expansion of hematopoietic precursors (BR2 O-neg hiPSC line; [1]): 8.07±2.06 fold | T-Bra+ cells (BR2 O-neg hiPSC line; [2]): 20.1±2.4% | KDR+PDGFRβ- cells (BR2 O-neg hiPSC line; [3]): 24.07±1.34% | erythroblast differentiation (BR2 O-neg hiPSC line; erythroblast expansion medium, up to day 42): failed to differentiate into erythroid cells | Hematopoietic precursor expansion % CD43 (BR2 O-neg hiPSC line; [4]): 8.7% | Hematopoietic precursor expansion Fold-expansion (BR2 O-neg hiPSC line; [5]): 8.1 fold | Mesoderm induction % T-Bra (BR2 O-neg hiPSC line; [6]): 20.1% | Mesoderm induction % KDR+ PDGFRα− (BR2 O-neg hiPSC line; optimal dose of CHIR-99021, day 4): 24.1% | T-Bra+ cells (IMR90 hiPSC line; [2]): 17.22±7.4% | KDR+PDGFRβ- cells (IMR90 hiPSC line; [3]): 14.2±1.69% | Total erythroid cells per hPSC seeded (day 42) (IMR90 hiPSC line; optimal dose of CHIR-99021): 1300 | Hematopoietic precursor expansion % CD43 (IMR90 hiPSC line; [4]): 21.9% | Hematopoietic precursor expansion Fold-expansion (IMR90 hiPSC line; [5]): 7.9 fold | Erythroblast expansion Fold-expansion (IMR90 hiPSC line; day 42): 918.1 fold | Erythroblast expansion Fold-expansion (IMR90 hiPSC line; day 42, listed as CHIR): 918.1±342.4 fold | Mesoderm induction % T-Bra (IMR90 hiPSC line; [6]): 17.2% | Erythroblast expansion % CD235a+ (IMR90 hiPSC line; [7]): 75.9% | Erythroblast expansion Hemoglobin expression (IMR90 hiPSC line; [8]): 98.1 | fold-expansion of hematopoietic precursors (X13 O-neg hiPSC line; [1]): 9.93±0.28 fold | T-Bra+ cells (X13 O-neg hiPSC line; [2]): 60.9±8.55% | KDR+PDGFRβ- cells (X13 O-neg hiPSC line; [3]): 40.8±1.34% | Hematopoietic precursor expansion % CD43 (X13 O-neg hiPSC line; [4]): 43.9% | Hematopoietic precursor expansion Fold-expansion (X13 O-neg hiPSC line; [5]): 9.9 fold | Erythroblast expansion Fold-expansion (X13 O-neg hiPSC line; day 42): 12605 fold | Erythroblast expansion Fold-expansion (X13 O-neg hiPSC line; day 42, listed as CHIR): 12605±2126 fold | Total erythroid cells per hPSC seeded (day 42) (X13 O-neg hiPSC line): 7607 | Total erythroid cells per hPSC seeded (day 42) (X13 O-neg hiPSC line; listed as CHIR): 7607±1016 | Mesoderm induction % T-Bra (X13 O-neg hiPSC line; [6]): 60.9% | Erythroblast expansion % CD235a+ (X13 O-neg hiPSC line; [7]): 67.4% | Erythroblast expansion Hemoglobin expression (X13 O-neg hiPSC line; [8]): 96.9 | fold-expansion of hematopoietic precursors (D5 O-neg hiPSC line; [1]): 7.99±0.82 fold | T-Bra+ cells (D5 O-neg hiPSC line; [2]): 55.6±8.26% | KDR+PDGFRβ- cells (D5 O-neg hiPSC line; [3]): 35.77±1.53% | Total erythroid cells per hPSC seeded (day 42) (D5 O-neg hiPSC line; optimal dose of CHIR-99021): 2308 | Hematopoietic precursor expansion % CD43 (D5 O-neg hiPSC line; [4]): 27.7% | Hematopoietic precursor expansion Fold-expansion (D5 O-neg hiPSC line; [5]): 7.9 fold | Erythroblast expansion Fold-expansion (D5 O-neg hiPSC line; day 42): 3712 fold | Erythroblast expansion Fold-expansion (D5 O-neg hiPSC line; day 42, listed as CHIR): 3712±1651 fold | Mesoderm induction % T-Bra (D5 O-neg hiPSC line; [6]): 55.6% | Erythroblast expansion % CD235a+ (D5 O-neg hiPSC line; [7]): 74.6% | Erythroblast expansion Hemoglobin expression (D5 O-neg hiPSC line; [8]): 99.2 | fold-expansion of hematopoietic precursors (hES-3 hESC line; [1]): 6.97±1.35 fold | T-Bra+ cells (hES-3 hESC line; [2]): 18±3.82% | KDR+PDGFRβ- cells (hES-3 hESC line; [3]): 14.6±0.81% | Total erythroid cells per hPSC seeded (day 42) (hES-3 hESC line; optimal dose of CHIR-99021): 244 | Hematopoietic precursor expansion % CD43 (hES-3 hESC line; [4]): 42.8% | Hematopoietic precursor expansion Fold-expansion (hES-3 hESC line; [5]): 6.9 fold | Erythroblast expansion Fold-expansion (hES-3 hESC line; day 42): 324 fold | Erythroblast expansion Fold-expansion (hES-3 hESC line; day 42, listed as CHIR): 324±83.97 fold | Mesoderm induction % T-Bra (hES-3 hESC line; [6]): 18% | Erythroblast expansion % CD235a+ (hES-3 hESC line; [7]): 78.5% | Erythroblast expansion Hemoglobin expression (hES-3 hESC line; [8]): 99.3 | fold-expansion of hematopoietic precursors (BR7 O-neg hiPSC line; [1]): 5.81±0.92 fold | T-Bra+ cells (BR7 O-neg hiPSC line; [2]): 20.8±3.8% | KDR+PDGFRβ- cells (BR7 O-neg hiPSC line; [3]): 18.6±1.57% | Total erythroid cells per hPSC seeded (day 42) (BR7 O-neg hiPSC line; optimal dose of CHIR-99021): 12 | Hematopoietic precursor expansion % CD43 (BR7 O-neg hiPSC line; [4]): 14.3% | Hematopoietic precursor expansion Fold-expansion (BR7 O-neg hiPSC line; [5]): 5.8 fold | Erythroblast expansion Fold-expansion (BR7 O-neg hiPSC line; day 42): 31.5 fold | Erythroblast expansion Fold-expansion (BR7 O-neg hiPSC line; day 42, listed as CHIR): 31.48±7.7 fold | Mesoderm induction % T-Bra (BR7 O-neg hiPSC line; [6]): 20.8% | Erythroblast expansion % CD235a+ (BR7 O-neg hiPSC line; [7]): 33.8% | Erythroblast expansion Hemoglobin expression (BR7 O-neg hiPSC line; [8]): 95.5 | T-Bra+ cells (D9 O-neg hiPSC line; [2]): 39±5.37% | KDR+PDGFRβ- cells (D9 O-neg hiPSC line; [3]): 18.07±0.6% | Total erythroid cells per hPSC seeded (day 42) (D9 O-neg hiPSC line; optimal dose of CHIR-99021): 63 | Hematopoietic precursor expansion % CD43 (D9 O-neg hiPSC line; [4]): 21.3% | Hematopoietic precursor expansion Fold-expansion (D9 O-neg hiPSC line; [5]): 6.0 fold | Erythroblast expansion Fold-expansion (D9 O-neg hiPSC line; day 42): 121 fold | Erythroblast expansion Fold-expansion (D9 O-neg hiPSC line; day 42, listed as CHIR): 121.2±36.89 fold | Mesoderm induction % T-Bra (D9 O-neg hiPSC line; [6]): 41.8% | Erythroblast expansion % CD235a+ (D9 O-neg hiPSC line; [7]): 57.5% | Erythroblast expansion Hemoglobin expression (D9 O-neg hiPSC line; [8]): 97.8
